Data taken from PubChem BioAssay (NCI).
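Compound exposure: 48 hours, 5 concentrations, 96-well plates. At the GI50, growth is halved. TGI: concentration producing complete growth inhibition.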

Assays:
Experiment in all cases: NCI anticancer screen, dose series, 48 h
M14 melanoma = test system: M14 melanoma
SF-295 CNS = test system: SF-295 CNS
HS 578T breast = test system: HS 578T breast
NCI-H226 lung = test system: NCI-H226 lung
NCI/ADR-RES ovarian = test system: NCI/ADR-RES ovarian
NCI-H23 lung = test system: NCI-H23 lung
SK-OV-3 ovarian = test system: SK-OV-3 ovarian
OVCAR-3 ovarian = test system: OVCAR-3 ovarian

Compound | GI50 (M14 melanoma) [µM] | TGI (M14 melanoma) [µM] | GI50 (SF-295 CNS) [µM] | TGI (SF-295 CNS) [µM] | GI50 (HS 578T breast) [µM] | TGI (HS 578T breast) [µM] | GI50 (NCI-H226 lung) [µM] | TGI (NCI-H226 lung) [µM] | GI50 (NCI/ADR-RES ovarian) [µM] | TGI (NCI/ADR-RES ovarian) [µM] | GI50 (NCI-H23 lung) [µM] | TGI (NCI-H23 lung) [µM] | GI50 (SK-OV-3 ovarian) [µM] | TGI (SK-OV-3 ovarian) [µM] | GI50 (OVCAR-3 ovarian) [µM] | TGI (OVCAR-3 ovarian) [µM]
C#Cc1cccc(Nc2ncnc3ccc(-c4cnc(N)nc4)cc23)c1 | 3.73 | 15.7 | 2.56 | 12.2 | 1.23 | 4.06 | 1.98 | 12.8 | 4.09 | 36.4 | 3.67 | > 100 | 1.53 | 4.74 | 1.93 | 10.5
COc1ccc(C(=O)/C=C/c2c(C(F)(F)F)nc3ccccn23)cc1OC | 2.22 | > 66.7 | 3.15 | 42.5 | 2.31 | > 100 | 3.97 | > 100 | 0.877 | 6.25 | 1.66 | > 26.9 | 2.38 | 6.13 | 2.28 | 6.09
CC(C)c1ccc(C(O)(C(=O)O)c2ccc(C(C)C)cc2)cc1 | – | > 100 | – | 95.5 | – | > 100 | – | 54.6 | – | > 100 | – | > 100 | – | > 100 | – | 60.7
N#Cc1ccc(O)c(C2=NCC(c3ccc(-c4ccccc4)cc3)O2)c1 (configuration not stated) | 0.399 | 2.95 | 0.335 | 11.8 | 0.867 | 31.9 | 0.589 | 12.7 | 0.148 | 5.7 | 0.703 | 17.2 | 0.664 | 14.4 | 0.368 | 11.7
COc1cc2c(cc1OC)-c1c(c3ccc([N+](=O)[O-])cc3c(=O)n1CCCN=[N+]=[N-])C2=O | 20.3 | 67.3 | 30.1 | > 100 | > 100 | > 100 | > 100 | > 100 | 31.7 | > 100 | 40.5 | > 100 | > 100 | > 100 | > 100 | > 100
CCCCNP1(NCCCC)=NP(NCCCC)(NCCCC)=NP(NCCCC)(NCCCC)=NP(NCCCC)(NCCCC)=N1 | 1.08 | 5.23 | 0.905 | 5.6 | 1.43 | 7.71 | 1.72 | 7.91 | 73.3 | > 100 | 0.271 | 3.2 | 1.07 | 9.75 | 0.243 | 0.871
Oc1ccccc1/C=N\Nc1ccccc1 | 3.7 | 19.4 | 1.63 | 8.07 | – | – | 3.13 | 31.4 | 3.2 | 88.5 | 12 | 84.1 | 70.4 | > 100 | 10.4 | > 100
